# Results as given in patent US20240317865A1, “ANTIBODIES AGAINST INTEGRIN ALPHA 11 BETA 1” (MOMENTA PHARMACEUTICALS, INC., priority 2020, published 2024).
# Tested on: A549 cell xenografts
# Test: Tumor xenograft model
# Format: in vivo, C.B-17 SCID mice
# Conditions: docetaxel 10 mg/kg every 4 days, 6 doses
# Protocol: Fifty-six female C.B-17 SCID mice were inoculated with A549 cells (5×10^6 cells/mouse) subcutaneously in the flank. Once tumor volume reached ˜100 mm^3, animals were randomized amongst 7 groups of 8 mice each. Mice were then treated intraperitonealy every 3 days for a total of 7 doses with isotype controls or novel mAbs 79E3E3, 16E10 and 9G04 (2 and 20 mg/kg) or with docetaxel at 10 mg/kg every 4 days for a total of 6 doses. Tumor volumes and body weights were recorded twice a week with a gap of 2-3 days in between two measurements until any of the following conditions defined were observed: loss of 20% or more body weight; tumors that inhibit normal physiological function such as eating, drinking, and mobility; ulcerated tumors; tumor size greater than 2000 mm^3 and clinical observations of prostration, paralysis, seizures and hemorrhages.
# In this example, studies were performed to determine if inhibition of α11β1 function with mAb results in xenograft growth inhibition. As shown in FIG. 16 and Table 4, blocking α11β1 on mouse CAFs impeded xenograft growth in SCID mice.
compound,measurement,value
"CC(=O)O[C@@]12CO[C@@H]1C[C@H](O)[C@@]1(C)C(=O)[C@H](O)C3=C(C)[C@@H](OC(=O)[C@H](O)[C@@H](NC(=O)OC(C)(C)C)c4ccccc4)C[C@@](O)([C@@H](OC(=O)c4ccccc4)[C@H]21)C3(C)C [Docetaxel, docetaxel, reference compound]","Days to Volume Doubling (ave, 95% CI)","11.0 (10.0, 12.0) Days"
